In patent US12448369B2 (Edgewise Therapeutics, Inc., priority 2023, dated 2025):

Tests used:
[1] = system: Rabbit Psoas myofibrils (skeletal myosin ATPase); assay: Myofibril ATPase assay, rabbit psoas (skeletal) myofibrils; assay type: biochemical; conditions: Y75 value (no ‡ mark); rabbit psoas myofibrils
How it was run: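 Myofibrils homogenized in Triton X-100 buffer were assayed in pH 7.0 PIPES with defined Ca2+/EGTA. Myosin-driven ADP formation was coupled to NADH oxidation, with depletion monitored at 340 nm. Each value is the concentration that lowers activity to 75% of vehicle or, for activators, raises it to 125%.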

[2] = target: T1, Porcine ventricle myofibrils (ventricular myosin ATPase) (Sus scrofa, UniProt P79293); assay: Myofibril ATPase assay, porcine ventricle myofibrils; assay type: biochemical, porcine (Yucatan minipigs); conditions: Y75 value (no ‡ mark); porcine ventricle myofibrils
T1 construct: Myofibrils from porcine cardiac muscle was isolated from the left ventricle of Yucatan minipigs; tissue Exemplar Genetics; host or cells: left ventricle of Yucatan minipigs, myofibrils prepared in house
How it was run: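 ATPase activity of porcine left-ventricle myofibrils (Yucatan minipig) was followed through PK-LDH coupling as NADH loss at 340 nm, read every 1.5-2 min for 75 min. Slopes were normalised to vehicle wells and fitted to a 4-parameter logistic model. Values are Y75, the concentration giving a 25% drop in activity, or Y125 for activators.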

[3] = system: Porcine atria myofibrils (atrial myosin ATPase); assay: Myofibril ATPase assay, porcine atria myofibrils; assay type: biochemical; conditions: Y75 value (no ‡ mark); porcine atria myofibrils
How it was run: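 Values are Y75 (concentration cutting ATPase activity to 75% of vehicle) or Y125 (raising it to 125%), taken from 4-parameter logistic fits. Rates come from NADH disappearance at 340 nm in a PK/LDH-coupled assay with porcine atria myofibrils.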

T1 sequence (P79293 whole entry): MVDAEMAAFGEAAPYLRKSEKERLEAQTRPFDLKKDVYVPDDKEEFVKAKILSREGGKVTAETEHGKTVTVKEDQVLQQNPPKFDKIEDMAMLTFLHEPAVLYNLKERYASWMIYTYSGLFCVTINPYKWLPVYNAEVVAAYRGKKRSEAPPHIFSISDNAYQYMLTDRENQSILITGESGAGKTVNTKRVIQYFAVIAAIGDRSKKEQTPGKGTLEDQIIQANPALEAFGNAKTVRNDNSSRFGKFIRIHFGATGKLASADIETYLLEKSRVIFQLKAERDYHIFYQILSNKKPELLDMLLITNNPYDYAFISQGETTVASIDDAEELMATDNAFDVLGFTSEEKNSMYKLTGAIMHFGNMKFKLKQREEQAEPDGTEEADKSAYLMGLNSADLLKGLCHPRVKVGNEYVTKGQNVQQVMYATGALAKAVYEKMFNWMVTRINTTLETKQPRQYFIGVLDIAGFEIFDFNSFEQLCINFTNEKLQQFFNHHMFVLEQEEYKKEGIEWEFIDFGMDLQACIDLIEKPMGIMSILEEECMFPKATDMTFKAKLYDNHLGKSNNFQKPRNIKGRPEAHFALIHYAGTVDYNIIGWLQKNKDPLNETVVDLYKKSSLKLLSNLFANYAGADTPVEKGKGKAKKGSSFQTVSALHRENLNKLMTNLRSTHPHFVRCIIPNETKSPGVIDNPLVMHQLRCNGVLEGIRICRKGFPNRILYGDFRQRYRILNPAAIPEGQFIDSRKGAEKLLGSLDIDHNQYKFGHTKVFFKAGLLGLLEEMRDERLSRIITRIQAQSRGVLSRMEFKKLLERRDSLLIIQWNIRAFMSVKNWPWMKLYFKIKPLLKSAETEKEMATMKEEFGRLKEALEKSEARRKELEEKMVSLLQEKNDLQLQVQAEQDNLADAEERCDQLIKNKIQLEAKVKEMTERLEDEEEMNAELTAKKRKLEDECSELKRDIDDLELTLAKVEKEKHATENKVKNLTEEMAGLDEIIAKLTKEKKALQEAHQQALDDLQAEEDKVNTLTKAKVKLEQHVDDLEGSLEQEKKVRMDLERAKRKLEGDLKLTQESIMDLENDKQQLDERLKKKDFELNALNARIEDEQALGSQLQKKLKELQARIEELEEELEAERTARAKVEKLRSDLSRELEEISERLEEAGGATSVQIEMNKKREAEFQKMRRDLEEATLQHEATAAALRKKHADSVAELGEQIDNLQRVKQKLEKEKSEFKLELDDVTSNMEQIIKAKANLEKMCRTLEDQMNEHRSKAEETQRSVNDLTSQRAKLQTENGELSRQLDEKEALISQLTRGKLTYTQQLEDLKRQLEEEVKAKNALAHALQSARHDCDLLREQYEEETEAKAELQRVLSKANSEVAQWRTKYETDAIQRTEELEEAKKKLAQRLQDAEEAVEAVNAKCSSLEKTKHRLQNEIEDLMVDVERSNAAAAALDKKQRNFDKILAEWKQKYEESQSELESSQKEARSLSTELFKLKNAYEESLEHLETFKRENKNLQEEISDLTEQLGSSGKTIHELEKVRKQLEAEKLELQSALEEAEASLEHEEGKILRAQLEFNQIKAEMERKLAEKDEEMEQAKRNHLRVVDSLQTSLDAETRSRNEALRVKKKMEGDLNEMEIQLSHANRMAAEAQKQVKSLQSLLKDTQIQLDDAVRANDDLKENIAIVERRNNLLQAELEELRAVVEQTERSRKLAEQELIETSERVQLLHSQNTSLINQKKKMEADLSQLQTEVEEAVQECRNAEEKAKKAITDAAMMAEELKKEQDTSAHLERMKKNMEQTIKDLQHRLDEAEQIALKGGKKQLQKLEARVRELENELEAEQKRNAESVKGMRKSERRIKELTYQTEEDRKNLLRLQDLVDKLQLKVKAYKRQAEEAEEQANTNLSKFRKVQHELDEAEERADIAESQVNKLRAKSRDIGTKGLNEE

SMILES	Skeletal EC25 [1]	Ventricular EC25 [2]	Atrial EC25 [3]
C[C@@H](NC(=O)Cc1cc2cc(F)c(F)cc2[nH]c1=O)c1cnc(C#N)nc1 [compound 1074]	100.00 µM	100.00 µM	100.00 µM
C[C@H](NC(=O)Cc1cc2cc(F)c(F)cc2[nH]c1=O)c1cnc(C#N)nc1 [compound 1075]	8.39 µM	15.41 µM	16.51 µM
Cc1c(CC(=O)N[C@H](C)c2ccc(C#N)cn2)c(=O)[nH]c2cccc(C#N)c12 [compound 1076]	0.35 µM	1.49 µM	1.89 µM
N#Cc1cnc2c(n1)CC[C@H]2NC(=O)Cc1cc2cc(F)c(F)cc2[nH]c1=O [compound 1082]	100.00 µM	100.00 µM	100.00 µM
N#Cc1cnc2c(n1)CC[C@@H]2NC(=O)Cc1cc2cc(F)c(F)cc2[nH]c1=O [compound 1083]	4.15 µM	100.00 µM	5.80 µM
C[C@@H](NC(=O)Cc1c(O)c2cc(F)c(F)cc2[nH]c1=O)c1ccc(C#N)cc1F [compound 1086]	100.00 µM	100.00 µM	1.94 µM
Cc1cc(C#N)ccc1[C@@H](C)NC(=O)Cc1c(O)c2cc(F)c(F)cc2[nH]c1=O [compound 1088]	100.00 µM	100.00 µM	5.78 µM
Cc1cc(C#N)ccc1[C@H](C)NC(=O)Cc1c(O)c2cc(F)c(F)cc2[nH]c1=O [compound 1089]	100.00 µM	42.07 µM	6.41 µM
Cc1nnccc1[C@@H](C)NC(=O)Cc1c(C)c2cc(F)ccc2[nH]c1=O [compound 1090]	100.00 µM	100.00 µM	5.79 µM
Cc1nnccc1[C@H](C)NC(=O)Cc1c(C)c2cc(F)ccc2[nH]c1=O [compound 1091]	100.00 µM	80.11 µM	53.30 µM
Cc1nc(C#N)ncc1[C@@H](C)NC(=O)Cc1cc2cc(F)c(F)cc2[nH]c1=O [compound 1096]	12.10 µM	100.00 µM	31.81 µM
Cc1nc(C#N)ncc1[C@H](C)NC(=O)Cc1cc2cc(F)c(F)cc2[nH]c1=O [compound 1097]	0.15 µM	1.56 µM	1.11 µM
C[C@@H](NC(=O)Cc1cc2cc(F)c(F)cc2[nH]c1=O)c1cnc(C#N)cn1 [compound 1098]	17.72 µM	17.06 µM	7.06 µM
C[C@H](NC(=O)Cc1cc2cc(F)c(F)cc2[nH]c1=O)c1cnc(C#N)cn1 [compound 1099]	4.41 µM	49.75 µM	7.61 µM
Cc1c(CC(=O)N[C@@H](C)c2cnc(C#N)cn2)c(=O)[nH]c2cc(F)c(F)cc12 [compound 1103]	0.06 µM	1.07 µM	0.40 µM
C[C@@H](NC(=O)Cc1cc2cc(F)c(F)cc2[nH]c1=O)c1ccc(C#N)cn1 [compound 1114]	22.82 µM	8.08 µM	8.40 µM
C[C@H](NC(=O)Cc1cc2cc(F)c(F)cc2[nH]c1=O)c1ccc(C#N)cn1 [compound 1115]	11.40 µM	69.62 µM	27.67 µM
Cc1cc([C@@H](C)NC(=O)Cc2c(O)c3c(C)c(F)ccc3[nH]c2=O)ncc1F [compound 1116]	100.00 µM	100.00 µM	100.00 µM
Cc1cc([C@H](C)NC(=O)Cc2c(O)c3c(C)c(F)ccc3[nH]c2=O)ncc1F [compound 1117]	100.00 µM	46.61 µM	100.00 µM
Cc1c(CC(=O)N[C@H](C)c2ccc(C#N)nn2)c(=O)[nH]c2ccc(F)cc12 [compound 1119]	0.22 µM	1.18 µM	0.48 µM
Cc1c(CC(=O)N[C@@H](C)c2ccc(C#N)nn2)c(=O)[nH]c2ccc(F)cc12 [compound 1120]	2.90 µM	10.61 µM	2.58 µM

Now from value to molecule:

Skeletal EC25 [1]	Ventricular EC25 [2]	Atrial EC25 [3]	SMILES
100.00 µM	89.23 µM	53.69 µM	Cc1c(CC(=O)N[C@@H](C)c2ccc(C#N)cn2)c(=O)[nH]c2cc(F)ccc12 [compound 1073]
2.27 µM	2.05 µM	2.57 µM	Cc1c(CC(=O)N[C@H](C)c2ncc(C#N)cc2F)c(=O)[nH]c2cc(F)ccc12 [compound 1078]
0.14 µM	3.04 µM	0.44 µM	Cc1c(CC(=O)N[C@@H](C)c2ncc(C#N)cc2F)c(=O)[nH]c2cc(F)ccc12 [compound 1079]
0.12 µM	0.36 µM	0.21 µM	Cc1c(CC(=O)N[C@H](C)c2ncc(C#N)cc2F)c(=O)[nH]c2cccc(C#N)c12 [compound 1080]
0.03 µM	0.28 µM	0.12 µM	Cc1c(CC(=O)N[C@@H](C)c2ncc(C#N)cc2F)c(=O)[nH]c2cccc(C#N)c12 [compound 1081]
0.36 µM	2.41 µM	1.13 µM	Cc1c(CC(=O)N[C@@H]2CCc3cc(C#N)cnc32)c(=O)[nH]c2ccc(F)cc12 [compound 1092]
100.00 µM	100.00 µM	100.00 µM	Cc1c(CC(=O)N[C@H]2CCc3cc(C#N)cnc32)c(=O)[nH]c2ccc(F)cc12 [compound 1093]
2.26 µM	100.00 µM	100.00 µM	C[C@@H](NC(=O)Cc1c(C#N)c2cc(F)ccc2[nH]c1=O)c1ncc(C#N)cc1F [compound 1094]
0.06 µM	0.42 µM	0.18 µM	C[C@H](NC(=O)Cc1c(C#N)c2cc(F)ccc2[nH]c1=O)c1ncc(C#N)cc1F [compound 1095]
0.53 µM	2.27 µM	0.77 µM	Cc1c(CC(=O)N[C@H](C)c2cnc(C#N)nc2)c(=O)[nH]c2ccc(F)cc12 [compound 1100]
0.06 µM	0.31 µM	0.17 µM	Cc1c(CC(=O)N[C@@H](C)c2cnc(C#N)nc2)c(=O)[nH]c2ccc(F)cc12 [compound 1101]
0.03 µM	0.21 µM	0.14 µM	Cc1c(CC(=O)N[C@H](C)c2ncc(C#N)cc2F)c(=O)[nH]c2cc(F)c(F)cc12 [compound 1104]
1.36 µM	4.47 µM	100.00 µM	Cc1c(CC(=O)N[C@@H](C)c2ncc(C#N)cc2F)c(=O)[nH]c2cc(F)c(F)cc12 [compound 1105]
0.03 µM	0.15 µM	0.12 µM	Cc1c(CC(=O)N[C@@H](C)c2ncc(C#N)cc2F)c(=O)[nH]c2ccc(F)cc12 [compound 1107]
0.37 µM	1.44 µM	6.47 µM	Cc1c(CC(=O)N[C@H](C)c2cnc(C#N)cn2)c(=O)[nH]c2ccc(F)cc12 [compound 1108]
0.05 µM	0.36 µM	0.16 µM	Cc1c(CC(=O)N[C@@H](C)c2cnc(C#N)cn2)c(=O)[nH]c2ccc(F)cc12 [compound 1109]
0.26 µM	2.28 µM	0.49 µM	Cc1cccc2[nH]c(=O)c(CC(=O)N[C@@H](C)c3ccc(C#N)cn3)c(C#N)c12 [compound 1111]
3.86 µM	2.09 µM	5.01 µM	Cc1c(CC(=O)N[C@H](C)c2ccc(C#N)cn2)c(=O)[nH]c2cc(F)c(F)cc12 [compound 1112]
0.47 µM	2.55 µM	0.97 µM	Cc1c(CC(=O)N[C@@H](C)c2ccc(C#N)cn2)c(=O)[nH]c2cc(F)c(F)cc12 [compound 1113]
100.00 µM	100.00 µM	100.00 µM	Cc1cc(C#N)cnc1[C@H](C)NC(=O)Cc1c(O)c2c(C)c(F)ccc2[nH]c1=O [compound 1121]
6.95 µM	38.45 µM	9.16 µM	Cc1cc(C#N)cnc1[C@@H](C)NC(=O)Cc1c(O)c2c(C)c(F)ccc2[nH]c1=O [compound 1122]
100.00 µM	100.00 µM	18.28 µM	C[C@@H](NC(=O)Cc1cc2cc(F)ccc2[nH]c1=O)c1ccc(C#N)cn1 [compound 1125]
